Measured values reported in patent US10899754B2, “Modulators of indoleamine 2,3-dioxygenase” (GLAXOSMITHKLINE INTELLECTUAL PROPERTY DEVELOPMENT LIMITED, priority 2016, dated 2021).

Tests used:
[1] = tested on: human epithelial HeLa cells; assay: HeLa cytotoxicity assay (CellTiter-Glo); assay type: cell-based; conditions: pCC50
Procedure: (§1) Compounds of the present invention were tested via high-throughput cellular assays utilizing detection of kynurenine via mass spectrometry and cytotoxicity as end-points. For the mass spectrometry and cytotoxicity assays, human epithelial HeLa cells (CCL-2; ATCC®, Manassas, Va.) were stimulated with human interferon-γ (IFN-γ) (Sigma-Aldrich Corporation, St. Louis, Mo.) to induce the expression of indoleamine 2, 3-dioxygenase (IDO1). Compounds with IDO1 inhibitory properties decreased the amount of kynurenine produced by the cells via the tryptophan catabolic pathway. Cellular toxicity due to the effect of compound treatment was measured using CellTiter-Glo® reagent (CTG) (Promega Corporation, Madison, Wis.), which is based on luminescent detection of ATP, an indicator of metabolically active cells.
(§2) In preparation for the assays, test compounds were serially diluted 3-fold in DMSO from a typical top concentration of 1 mM or 5 mM and plated at 0.5 μL in 384-well, polystyrene, clear bottom, tissue culture treated plates with lids (Greiner Bio-One, Kremsmünster, Austria) to generate 11-point dose response curves. Low control wells (0% kynurenine or 100% cytotoxicity) contained either 0.5 μL of DMSO in the presence of unstimulated (−IFN-γ) HeLa cells for the mass spectrometry assay or 0.5 μL of DMSO in the absence of cells for the cytotoxicity assay, and high control wells (100% kynurenine or 0% cytotoxicity) contained 0.5 μL of DMSO in the presence of stimulated (+IFN-γ) HeLa cells for both the mass spectrometry and cytotoxicity assays.
(§3) Frozen stocks of HeLa cells were washed and recovered in DMEM high glucose medium with HEPES (Thermo Fisher Scientific, Inc., Waltham, Mass.) supplemented with 10% v/v certified fetal bovine serum (FBS) (Thermo Fisher Scientific, Inc., Waltham, Mass.), and 1× penicillin-streptomycin antibiotic solution (Thermo Fisher Scientific, Inc., Waltham, Mass.). The cells were diluted to 100,000 cells/mL in the supplemented DMEM medium. 50 μL of either the cell suspension, for the mass spectrometry assay, or medium alone, for the cytotoxicity assay, were added to the low control wells, on the previously prepared 384-well compound plates, resulting in 5,000 cells/well or 0 cells/well respectively. IFN-γ was added to the remaining cell suspension at a final concentration of 10 nM, and 50 μL of the stimulated cells were added to all remaining wells on the 384-well compound plates. The plates, with lids, were then placed in a 37° C., 5% CO2 humidified incubator for 2 days.
(§4) Following incubation, the 384-well plates were removed from the incubator and allowed to equilibrate to room temperature for 30 minutes. For the cytotoxicity assay, CellTiter-Glo® was prepared according to the manufacturer's instructions, and 10 μL were added to each plate well. After a twenty minute incubation at room temperature, luminescence was read on an EnVision® Multilabel Reader (PerkinElmer Inc., Waltham, Mass.). For the mass spectrometry assay, 10 μL of supernatant from each well of the compound-treated plates were added to 40 μL of acetonitrile, containing 10 μM of an internal standard for normalization, in 384-well, polypropylene, V-bottom plates (Greiner Bio-One, Kremsmünster, Austria) to extract the organic analytes. Following centrifugation at 2000 rpm for 10 minutes, 10 μL from each well of the acetonitrile extraction plates were added to 90 μL of sterile, distilled H2O in 384-well, polypropylene, V-bottom plates for analysis of kynurenine and the internal standard on the RapidFire 300 (Agilent Technologies, Santa Clara, Calif.) and 4000 QTRAP MS (SCIEX, Framingham, Mass.). MS data were integrated using Agilent Technologies' RapidFire Integrator software, and data were normalized for analysis as a ratio of kynurenine to the internal standard. […]

[2] = target: indoleamine 2, 3-dioxygenase (IDO1) (Homo sapiens, UniProt P14902); assay: IDO1 HeLa RapidFire MS assay (kynurenine detection by mass spectrometry); assay type: cell-based; set-up: to induce the expression of indoleamine 2, 3-dioxygenase (IDO1); conditions: HeLa cells, pIC50, read-out: IDO1_HELA_PXC50 (converted)
Procedure: IDO1 HeLa RapidFire MS Assay
as §1, §2, §3, §4

Chain of indoleamine 2, 3-dioxygenase (IDO1) (P14902 whole entry): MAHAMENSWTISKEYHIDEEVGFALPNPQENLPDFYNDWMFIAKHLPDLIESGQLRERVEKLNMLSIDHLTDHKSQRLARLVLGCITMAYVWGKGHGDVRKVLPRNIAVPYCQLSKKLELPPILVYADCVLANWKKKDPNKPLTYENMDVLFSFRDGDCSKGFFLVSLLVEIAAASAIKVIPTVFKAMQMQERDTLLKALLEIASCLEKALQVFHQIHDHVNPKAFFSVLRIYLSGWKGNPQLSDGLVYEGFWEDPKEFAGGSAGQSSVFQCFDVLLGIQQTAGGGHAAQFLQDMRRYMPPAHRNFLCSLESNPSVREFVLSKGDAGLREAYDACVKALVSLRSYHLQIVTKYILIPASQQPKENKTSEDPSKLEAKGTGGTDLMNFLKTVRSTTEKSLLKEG

SMILES | HELA_IDO1_TOX_PXC50 [1] | IC50 [2] [nM]
CC(C)CN(CC(C)C)c1ccc(C(C)CC(=O)O)cc1Nc1nc(C(C)(C)C)cs1 (stereo not drawn) [example 133, 3-{4-[bis(2-methylpropyl)amino]-3-[(4-tert-butyl-1,3-thiazol-2-yl)amino]phenyl}butanoic acid] | 4.5 | 3980
CC(C)CN(CC(C)C)c1ccc(C(C)CC(=O)O)cc1NCc1noc(C2CC2)n1 (stereo not drawn) [example 147, 3-{4-[bis(2-methylpropyl)amino]-3-{[(5-cyclopropyl-1,2,4-oxadiazol-3-yl)methyl]amino}phenyl} butanoic acid] | <5 | > 10000
CC(C)CN(c1ccc(-c2ccncc2C(=O)O)cc1Nc1nc2ccccc2o1)C1CCCCC1 [example 281, 4-{3-[(1,3-benzoxazol-2-yl)amino]-4-[cyclohexyl(2-methylpropyl)amino]phenyl}pyridine-3-carboxylic acid] | <5 | 100
CC(C)CN(c1ccc([C@H](C)CC(=O)O)cc1NC1CCC[C@@H](C)C1)C1CCCCC1 (stereo partly drawn) [example 184, (3R)-3-{4-[cyclohexyl(2-methylpropyl)amino]-3-{[(3R)-3-methylcyclohexyl]amino}phenyl}butanoic acid] | <5 | 501
CC(C)CN(c1ccc([C@H](C)CC(=O)O)cc1NC(C)CCO)C1CCCCC1 (stereo partly drawn) [example 185, (3R)-3-{4-[cyclohexyl(2-methylpropyl)amino]-3-[(4-hydroxybutan-2-yl)amino]phenyl}butanoic acid] | <5 | 1580
CC(C)CN(CC(C)C)c1ccc(-c2ccccc2C(=O)O)cc1Nc1nc2ccccc2o1 [example 293, 3′-[(1,3-benzoxazol-2-yl)amino]-4′-[bis(2-methylpropyl)amino]-[1,1′-biphenyl]-2-carboxylic acid] | <5 | 631
CC(C)CN(c1ccc(C(C)CC(=O)O)cc1Nc1nc2n(n1)CCCC2)C1CCCCC1 (stereo not drawn) [example 150, 3-{4-[cyclohexyl(2-methylpropyl)amino]-3-({5H,6H,7H,8H-[1,2,4]triazolo[1,5-a]pyridin-2-yl}amino)phenyl}butanoic acid] | <5 | 3160
CC(C)CN(CC(C)C)c1ccc(C(C)CC(=O)O)cc1NC1CCC(C(=O)O)CC1 (stereo not drawn) [example 198, 4-({2-[bis(2-methylpropyl)amino]-5-(1-carboxypropan-2-yl)phenyl}amino)cyclo-hexane-1-carboxylic acid] | <5 | > 10000
CC(C)CN(CC(C)C)c1ccc(C(C)CC(=O)O)cc1Nc1nnc(C2CC2)o1.O=C(O)C(F)(F)F (stereo not drawn) [example 126, 3-{4-[bis(2-methylpropyl)amino]-3-[(5-cyclopropyl-1,3,4-oxadiazol-2-yl)amino]phenyl}butanoic acid] | <4.3 | 631
CC(C)CN(CC(C)C)c1ccc(C(C)CC(=O)O)cc1Nc1nc(-c2ccccc2)cs1 (stereo not drawn) [example 128, 3-{4-[bis(2-methylpropyl)amino]-3-[(4-phenyl-1,3-thiazol-2-yl)amino]phenyl}butanoic acid] | 4.4 | 2510
COc1ccnc(Nc2cc(C(C)CC(=O)O)ccc2N(CC(C)C)CC(C)C)n1.O=C(O)C(F)(F)F (stereo not drawn) [example 127, 3-{4-[bis(2-methylpropyl)amino]-3-[(4-methoxypyrimidin-2-yl)amino]phenyl}butanoic acid] | <4.3 | 2510
CC(C)CN(c1ccc(C(C)CC(=O)O)cc1NC1CCNC1)C1CCCCC1 (stereo not drawn) [example 136, 3-{4-[cyclohexyl(2-methylpropyl)amino]-3-[(pyrrolidin-3-yl)amino]phenyl}butanoic acid] | 5.1 | 3160
COc1nsc(Nc2cc(C(C)CC(=O)O)ccc2N(CC(C)C)CC(C)C)n1 (stereo not drawn) [example 132, 3-{4-[bis(2-methylpropyl)amino]-3-[(3-methoxy-1,2,4-thiadiazol-5-yl)amino]phenyl}butanoic acid] | <4.3 | 15800
CC(C)CN(c1ccc(-c2ccccc2C(=O)O)cc1Nc1nc(C(F)(F)F)ns1)C1CCN(C)CC1 [example 274, 4′-[(1-methylpiperidin-4-yl)(2-methylpropyl)amino]-3′-{[3-(trifluoromethyl)-1,2,4-thiadiazol-5-yl]amino}-[1,1′-biphenyl]-2-carboxylic acid] | <5 | 1000
Cc1nc(Cc2ccccc2)c(Nc2cc(C(C)CC(=O)O)ccc2N(CC(C)C)CC(C)C)s1 (stereo not drawn) [example 146, 3-{3-[(4-benzyl-2-methyl-1,3-thiazol-5-yl)amino]-4-[bis(2-methylpropyl)amino]phenyl}butanoic acid] | <5 | > 10000
CC(C)CN(c1ccc(C(C)CC(=O)O)cc1NC1COC1)C1CCCCC1 (stereo not drawn) [example 129, 3-{4-[cyclohexyl(2-methylpropyl)amino]-3-[(oxetan-3-yl)amino]phenyl}butanoic acid] | <4.3 | 1580
CC(C)CN(c1ccc(-c2ccccc2C(=O)O)cc1Nc1nc(C(F)(F)F)ns1)C1CCN(C(=O)OC(C)(C)C)CC1 [example 273, 4′-({1-[(tert-butoxy)carbonyl]piperidin-4-yl)-(2-methylpropyl)amino)-3′-{[3-(trifluoromethyl)-1,2,4-thiadiazol-5-yl]amino}-[1,1′-biphenyl]-2-carboxylic acid] | <5 | 7.94
CC(C)CN(c1ccc(-c2cnn(C)c2C(=O)O)cc1Nc1nc2ccccc2o1)C1CCCCC1 [example 178, 4-{3-[(1,3-benzoxazol-2-yl)amino]-4-[cyclohexyl(2-methylpropyl)amino]phenyl}-1-methyl-1H-pyrazole-5-carboxylic acid] | <5 | 3160
COCCN(c1ccc(-c2ccccc2C(=O)O)cc1Nc1nc2ccccc2[nH]1)C1CCCCC1 [example 285, 3′-[(1H-1,3-benzodiazol-2-yl)amino]-4′-[cyclohexyl(2-methoxyethyl)amino]-[1,1′-biphenyl]-2-carboxylic acid] | <5 | 794
CC(C)CN(c1ccc(C(C)CC(=O)O)cc1Nc1nc2ccccn2n1)C1CCCCC1 (stereo not drawn) [example 145, 3-{4-[cyclohexyl(2-methylpropyl)amino]-3-({[1,2,4]triazolo[1,5-a]pyridin-2-yl)amino)phenyl}butanoic acid] | <5 | 794
CC(C)CN(CC(C)C)c1ccc([C@@H]2C[C@@H]2C(=O)O)cc1Nc1nc(C(F)(F)F)ns1 (single isomer, unassigned) [example 206] | <5 | 31.6
CC(=O)Nc1ccc(Nc2cc(C(C)CC(=O)O)ccc2N(CC(C)C)CC(C)C)nc1 (stereo not drawn) [example 199, 3-{4-[bis(2-methylpropyl)amino]-3-[(5-acetamidopyridin-2-yl)amino]phenyl}butanoic acid] | <5 | 6310
CC(C)CN(c1ccc(C(C)OCC(=O)O)cc1Nc1ccc(C(N)=O)cn1)C1CCCCC1 (stereo not drawn) [example 201, 2-(1-{3-[(5-carbamoylpyridin-2-yl)amino]-4-[cyclohexyl(2-methylpropyl)amino]phenyl}ethoxy)acetic acid] | <5 | > 10000
CC(C)CN(c1ccc(C(C)CC(=O)O)cc1Nc1nc(Cl)ns1)C1COC1 (stereo not drawn) [example 205, 3-{3-[(3-chloro-1,2,4-thiadiazol-5-yl)amino]-4-[{2-methylpropyl)(oxetan-3-yl)amino]phenyl}butanoic acid] | <5 | > 10000
